Assay results as given in patent US11439148B2, “Pyrimidine derivatives” (SYNGENTA PARTICIPATIONS AG, priority 2017, dated 2022).
Values joined by “and” are separate entries in the source; they are usually repeats but may differ in a detail not shown here. Equal entries are not always repeated.

Columns and labels:
Assay type in all cases: in vivo
[1] = test system: Brachiaria plantaginea (BRAPL); test: Adjuvant efficacy with mesotrione, glasshouse spray test; settings: mesotrione SC, mean over 30 and 60 g/ha and 3 replicates; adjuvant 0.2% v/v (none in No Adjuvant rows); % leaf area killed, 21 days after application; Test 4
[2] = test system: Commelina benghalensis (COMBE); test: as above; settings: mesotrione SC, mean over 30 and 60 g/ha and 3 replicates; adjuvant 0.2% v/v (none in No Adjuvant rows); % leaf area killed, 21 days after application; Tests 2 and 4
[3] = test system: weed species BRAPL, COMBE, DIGSA, POLCO; test: Adjuvant efficacy with mesotrione, glasshouse spray test, average over all species (BRAPL set); settings: mesotrione SC, mean over 30 and 60 g/ha, adjuvant 0.2% v/v (none in No Adjuvant rows), 21 days, Test 4, average of BRAPL
Protocol: The efficacy of adjuvants 1-12 as an adjuvant for the herbicide mesotrione was tested in a glasshouse against four weed species sown into standard soil in pots and cultivated under controlled conditions in a glasshouse (at 24/18° C. day/night; 16 hours light; 65% humidity). Mesotrione was added to the spray tank as a standard SC (suspension concentrate) formulation.
The spray tests were also carried out using mesotrione in conjunction with adjuvants 1-12. The adjuvants were added to the spray solution at a rate of 0.2% v/v unless otherwise stated. All spray solutions also contained 10% w/w of iso-Propanol. The weed species and their BBCH growth stage at spraying were Brachiaria platyphylla (BRAPP; growth stage 13-14) or Brachiaria plantaginea (BRAPL; growth stage 13-14), Commelina benghalensis (COMBE; growth stage 13), Digitaria sanguinalis (DIGSA; growth stage 14), and Polygonum convolvulus (POLCO; growth stage 13-14). Each spray test was replicated three times.
The test plants were then grown in a glasshouse under controlled conditions (at 24/18° C. day/night; 16 hours light; 65% humidity) and watered twice a day. The efficacy of the herbicide was assessed visually and expressed as a percentage of the leaf area killed. Samples were assessed at a time period of 21 days following application. […]

[4] = test system: four weed species (ABUTH, CHEAL, IPOHE, SETVI); test: Adjuvant efficacy with fomesafen, glasshouse spray test, average over all species; settings: fomesafen sodium salt SL, mean over 100 and 200 g/ha, adjuvant 0.2% v/v (none in No Adjuvant rows), 21 days, average of ABUTH
Protocol: (§1) The efficacy of adjuvants 1-12 as adjuvants for the herbicide fomesafen (as the sodium salt) were tested in a glasshouse against four weed species, sown into standard soil in pots and cultivated under controlled conditions in a glasshouse (at 24/18° C. day/night; 16 hours light, 65% humidity). Fomesafen sodium salt was added to the spray tank as a standard SL (soluble concentrate) formulation.
(§2) The spray tests were also carried out using fomesafen in conjunction with adjuvants 1-12. Unless otherwise stated, the adjuvants were added to the spray solution at a rate of 0.2% v/v. All spray solutions also contained 12.5% v/v of iso-Propanol to normalise the retention of the sprays on the hydrophobic plant surfaces. The weed species and their BBCH growth stage at spraying were Abutilon theophrasti (ABUTH; growth stage 12-13), Chenopodium album (CHEAL; growth stage 15), Ipomea hederacea (IPOHE; growth stage 12), and Setaria viridis (SETVI; growth stage 14). Each spray test was replicated three times. The test plants were then grown in a glasshouse under controlled conditions (at 24/18° C. day/night; 16 hours light; 65% humidity) and watered twice a day.
(§3) The efficacy of the herbicide was assessed visually and expressed as a percentage of the leaf area killed. Samples were assessed at a time period of 21 days following application. The results shown in Table 2 below are mean averages over the two rates of fomesafen, the three replicates […].

Septoria tritici [5] = test: Adjuvant efficacy with epoxiconazole on inoculated wheat plants; settings: epoxiconazole SC 1.5, 4, 8.5 and 20 mg/l, 4 replicates, adjuvant 0.1% v/v (none in No Adjuvant rows), sprayed 4 days after inoculation, percentage of leaf area infected 17-18 days after infection, Tests 1-3 separate runs
Protocol: Adjuvants 6, 7, 8 and 10 were tested as adjuvants for agrochemical compositions comprising epoxiconazole.
Two week old wheat plants were inoculated with the fungus Septoria tritici. […] All spray solutions also contained 10% v/v of iso-Propanol. The leaves of the plants were assessed visually 17-18 days after infection and the damage was expressed as the percentage of the leaf area infected.

[6] = test system: Chenopodium album (CHEAL); test: Adjuvant efficacy with fomesafen, glasshouse spray test; settings: fomesafen sodium salt SL, mean over 100 and 200 g/ha and 3 replicates; adjuvant 0.2% v/v (none in No Adjuvant rows); % leaf area killed, 21 days after application; Tests 1-4 separate runs
Protocol: as §1, §2, §3

Ipomea hederacea (IPOHE) = test: as above; settings: fomesafen sodium salt SL, mean over 100 and 200 g/ha and 3 replicates; adjuvant 0.2% v/v (none in No Adjuvant rows); % leaf area killed, 21 days after application; Tests 1-4 separate runs
Protocol: as §1, §2, §3

[7] = test system: Abutilon theophrasti (ABUTH); test: as above; settings: fomesafen sodium salt SL, mean over 100 and 200 g/ha and 3 replicates; adjuvant 0.2% v/v (none in No Adjuvant rows); % leaf area killed, 21 days after application; Tests 1-4 separate runs
Protocol: as §1, §2, §3

Setaria viridis (SETVI) = test: as above; settings: fomesafen sodium salt SL, mean over 100 and 200 g/ha and 3 replicates; adjuvant 0.2% v/v (none in No Adjuvant rows); % leaf area killed, 21 days after application; Tests 1-4 separate runs
Protocol: as §1, §2, §3

Septoria tritici [8] = test: Adjuvant efficacy with isopyrazam on inoculated wheat plants; settings: isopyrazam SC, mean over 6.5, 16, 40 and 100 mg/l and 4 replicates, sprayed 4 days after inoculation, percentage of leaf area infected 17-18 days after infection, Tests 1-3 separate runs
Protocol: Adjuvants 6, 7, 8 and 10 were tested as adjuvants for agrochemical compositions comprising isopyrazam.
Two week old wheat plants were inoculated with the fungus Septoria tritici. […] All spray solutions also contained 10% v/v of iso-Propanol. The leaves of the plants were assessed visually 17-18 days after infection and the damage was expressed as the percentage of the leaf area infected. Each spray test was replicated four times across the four application rates.
The results shown in Table 6 below are mean averages over the four rates of isopyrazam and the four replicates.

For `CCCCCCCCCCCCCCCCOc1cc(OCCOCCOCCOCCOCCOCCOCCOCCOCCOCCOC)ncn1` [Adjuvant 8], the “Mean % Herbicidal Activity BRAPL” value [1] was 33%, the “Mean % Herbicidal Activity COMBE” value [2] was 85% and 79% and the “Mean % Herbicidal Activity Average over all Species” value [3] was 72%. For the same compound, the “Mean % Herbicidal Activity Average over all Species” value [4] was 60% and 75% and 43%, the “Disease Damage Mean” value (Septoria tritici [5]) was 36% and the “Mean % Herbicidal Activity CHEAL” value [6] was 78% and 65% and 73%. The “Mean % Herbicidal Activity IPOHE” value (Ipomea hederacea (IPOHE)) was 92% and 97% and 51%, the “Mean % Herbicidal Activity ABUTH” value [7] was 53% and 75% and 36% and the “Mean % Herbicidal Activity SETVI” value (Setaria viridis (SETVI)) was 17% and 65% and 13%. The “Disease Damage Mean” value (Septoria tritici [8]) was 20%.
